Results published in publication PMC4890880 (ACS infectious diseases, 2016).
Like-named read-outs stand apart in the source and are kept apart here.

Tests used:
[1] = tested on: Plasmodium berghei (Pb-Luc) exoerythrocytic-stage parasites; conditions: for IC50: read-out: PbLuc_IC50
[2] = tested on: HepG2-A16-CD81EGFP cells; conditions: for IC50: read-out: Tox_IC50, HepG2 cytotoxicity
[3] = first series of dose-response columns, fraction of control
[4] = first series, fraction of control
[5] = sheet 2nd round, Broad compounds, dose response
[6] = second series of dose-response columns, fraction of control
[7] = second series, fraction of control
[8] = sheet 2nd round, maximal inhibition in dose response
[9] = 2nd round, maximal inhibition in dose series
[10] = first series of columns, fraction of control
[11] = second series of columns (replicate), fraction of control

Structure (SMILES): C[C@@H]1CCCCO[C@@H](CN(C)S(=O)(=O)c2ccc(F)cc2)[C@@H](C)CN([C@H](C)CO)C(=O)c2cc(N(C)C)ccc2O1 [BRD-K46014293-001-01-6]
- normalized signal at concentration 10 [1, 3]: 1.08
- normalized signal at concentration 0.000508053 [1, 4]: 0.75
- normalized signal at concentration 0.00152416 [1, 4]: 0.85
- normalized signal at concentration 0.00457247 [1, 4]: 0.95
- normalized signal at concentration 0.0137174 [1, 4]: 0.77
- normalized signal at concentration 0.0411523 [1, 4]: 0.97
- normalized signal at concentration 0.123457 [1, 4]: 1.05
- normalized signal at concentration 0.37037 [1, 4]: 1.10
- normalized signal at concentration 1.11111 [1, 4]: 1.01
- normalized signal at concentration 3.33333 [1, 4]: 0.87
- IC50 [1, 5]: > 10 µM
- normalized signal at concentration 10 [1, 6]: 0.93
- normalized signal at concentration 0.000508053 [1, 7]: 1.07
- normalized signal at concentration 0.00152416 [1, 7]: 0.98
- normalized signal at concentration 0.00457247 [1, 7]: 0.95
- normalized signal at concentration 0.0137174 [1, 7]: 0.98
- normalized signal at concentration 0.0411523 [1, 7]: 0.94
- normalized signal at concentration 0.123457 [1, 7]: 1.10
- normalized signal at concentration 0.37037 [1, 7]: 1.03
- normalized signal at concentration 1.11111 [1, 7]: 0.83
- normalized signal at concentration 3.33333 [1, 7]: 0.91
- PbLuc_max_inhibition (%) [1, 8]: 25%
- IC50 ([2]; sheet 2nd round): > 10 µM
- Tox_max_inhibition (%) [2, 8]: 15%

Structure (SMILES): COc1cccc(NC(=O)N[C@@H]2CC[C@H](CC(=O)N3CCN(C)CC3)O[C@@H]2CO)c1 [BRD-K48690594-001-01-7]
- normalised signal at concentration 0.000508053 (first series) ([1]; concentration 0.000508053, first series): 0.9068
- normalised signal at concentration 0.000508053 (second series) ([1]; concentration 0.000508053, second series): 0.9275
- normalised signal at concentration 0.00152416 (first series) ([1]; concentration 0.00152416, first series): 1.012
- normalised signal at concentration 0.00152416 (second series) ([1]; concentration 0.00152416, second series): 1.043
- normalised signal at concentration 0.00457247 (first series) ([1]; concentration 0.00457247, first series): 1.046
- normalised signal at concentration 0.00457247 (second series) ([1]; concentration 0.00457247, second series): 0.8968
- normalised signal at concentration 0.0137174 (first series) ([1]; concentration 0.0137174, first series): 1.108
- normalised signal at concentration 0.0137174 (second series) ([1]; concentration 0.0137174, second series): 0.8364
- normalised signal at concentration 0.0411523 (first series) ([1]; concentration 0.0411523, first series): 0.955
- normalised signal at concentration 0.0411523 (second series) ([1]; concentration 0.0411523, second series): 1.013
- normalised signal at concentration 0.123457 (first series) ([1]; concentration 0.123457, first series): 0.854
- normalised signal at concentration 0.123457 (second series) ([1]; concentration 0.123457, second series): 0.8546
- normalised signal at concentration 0.37037 (first series) ([1]; concentration 0.37037, first series): 1.036
- normalised signal at concentration 0.37037 (second series) ([1]; concentration 0.37037, second series): 0.9102
- normalised signal at concentration 1.11111 (first series) ([1]; concentration 1.11111, first series): 1.0718
- normalised signal at concentration 1.11111 (second series) ([1]; concentration 1.11111, second series): 0.9366
- normalised signal at concentration 3.33333 (first series) ([1]; concentration 3.33333, first series): 0.8922
- normalised signal at concentration 3.33333 (second series) ([1]; concentration 3.33333, second series): 0.9328
- normalised signal at concentration 10 (first series) ([1]; concentration 10, first series of dose columns): 0.9136
- normalised signal at concentration 10 (second series) ([1]; concentration 10, second series of dose columns): 0.9502
- IC50 ([1]; sheet "2nd round", Broad compounds, dose response top concentration 10): > 10 µM
- PbLuc_max_inhibition (%) ([1]; sheet "2nd round"): 16%
- IC50 ([2]; sheet "2nd round"): > 10 µM
- Tox_max_inhibition (%) ([2]; sheet "2nd round"): 14%

Structure (SMILES): N#C[C@@H]1[C@H](c2ccccc2C2=CCCC2)[C@H](CO)N1C(=O)C1CCOCC1 [BRD-K53180201-001-01-6]
- PbLuc_max_inhibition (%) [1, 9]: 21%
- normalized signal at 0.000508053 (first series) ([1]; concentration 0.000508053, first replicate series, fraction of control): 1.0312
- normalized signal at 0.000508053 (second series) ([1]; concentration 0.000508053, second replicate series, fraction of control): 0.7931
- normalized signal at 0.00152416 (first series) ([1]; concentration 0.00152416, first replicate series, fraction of control): 1.021
- normalized signal at 0.00152416 (second series) ([1]; concentration 0.00152416, second replicate series, fraction of control): 0.9501
- normalized signal at 0.00457247 (first series) ([1]; concentration 0.00457247, first replicate series, fraction of control): 0.8781
- normalized signal at 0.00457247 (second series) ([1]; concentration 0.00457247, second replicate series, fraction of control): 0.9105
- normalized signal at 0.0137174 (first series) ([1]; concentration 0.0137174, first replicate series, fraction of control): 0.9372
- normalized signal at 0.0137174 (second series) ([1]; concentration 0.0137174, second replicate series, fraction of control): 0.8749
- normalized signal at 0.0411523 (first series) ([1]; concentration 0.0411523, first replicate series, fraction of control): 0.9703
- normalized signal at 0.0411523 (second series) ([1]; concentration 0.0411523, second replicate series, fraction of control): 1.2503
- normalized signal at 0.123457 (first series) ([1]; concentration 0.123457, first replicate series, fraction of control): 0.9995
- normalized signal at 0.123457 (second series) ([1]; concentration 0.123457, second replicate series, fraction of control): 1.034
- normalized signal at 0.37037 (first series) ([1]; concentration 0.37037, first replicate series, fraction of control): 0.9827
- normalized signal at 0.37037 (second series) ([1]; concentration 0.37037, second replicate series, fraction of control): 0.991
- normalized signal at 1.11111 (first series) ([1]; concentration 1.11111, first replicate series, fraction of control): 1.008
- normalized signal at 1.11111 (second series) ([1]; concentration 1.11111, second replicate series, fraction of control): 0.8686
- normalized signal at 3.33333 (first series) ([1]; concentration 3.33333, first replicate series, fraction of control): 0.9463
- normalized signal at 3.33333 (second series) ([1]; concentration 3.33333, second replicate series, fraction of control): 0.9769
- normalized signal at 10 (first series) ([1]; concentration 10, first replicate series, fraction of control): 1.181
- normalized signal at 10 (second series) ([1]; concentration 10, second replicate series, fraction of control): 1.122
- IC50 ([1]; 2nd round, Broad DOS compounds, unit not printed (dose series head 10 to 0.000508053)): > 10 µM
- Tox_max_inhibition (%) [2, 9]: 7%
- IC50 ([2]; 2nd round, unit inferred): > 10 µM

Structure (SMILES): C[C@H]1CN([C@@H](C)CO)C(=O)CCCn2cc(nn2)CO[C@H]1CN(C)C(=O)Nc1cccc2ccccc12 [BRD-K54628954-001-01-2]
- normalized signal at concentration 0.000508053 [1, 10]: 0.8794
- normalized signal at concentration 0.00152416 [1, 10]: 0.9359
- normalized signal at concentration 0.00457247 [1, 10]: 0.9054
- normalized signal at concentration 0.0137174 [1, 10]: 0.8762
- normalized signal at concentration 0.0411523 [1, 10]: 0.8388
- normalized signal at concentration 0.123457 [1, 10]: 0.9562
- normalized signal at concentration 0.37037 [1, 10]: 0.9801
- normalized signal at concentration 1.11111 [1, 10]: 0.9783
- normalized signal at concentration 3.33333 [1, 10]: 0.874
- normalized signal at concentration 10 [1, 10]: 0.9112
- IC50 ([1]; sheet 2nd round, Pb-Luc exoerythrocytic stage, 10-point dose response, top concentration 10): > 10 µM
- normalized signal at concentration 0.000508053 [1, 11]: 0.8292
- normalized signal at concentration 0.00152416 [1, 11]: 0.8809
- normalized signal at concentration 0.00457247 [1, 11]: 0.7545
- normalized signal at concentration 0.0137174 [1, 11]: 0.9599
- normalized signal at concentration 0.0411523 [1, 11]: 0.9428
- normalized signal at concentration 0.123457 [1, 11]: 0.9557
- normalized signal at concentration 0.37037 [1, 11]: 0.8087
- normalized signal at concentration 1.11111 [1, 11]: 0.9126
- normalized signal at concentration 3.33333 [1, 11]: 0.9018
- normalized signal at concentration 10 [1, 11]: 1.015
- PbLuc_max_inhibition (%) [1, 8]: 25%
- IC50 ([2]; sheet 2nd round): > 10 µM
- Tox_max_inhibition (%) [2, 8]: 1.76%

Structure (SMILES): COc1cccc(CN2[C@H](CO)[C@@H](c3ccccc3)C23CN(Cc2ccccc2OC)C3)c1 [BRD-K58149752-001-01-9]
- normalized signal at concentration 10 [1, 3]: 0.43
- normalized signal at concentration 0.000508053 [1, 4]: 0.95
- normalized signal at concentration 0.00152416 [1, 4]: 0.91
- normalized signal at concentration 0.00457247 [1, 4]: 0.80
- normalized signal at concentration 0.0137174 [1, 4]: 0.89
- normalized signal at concentration 0.0411523 [1, 4]: 0.73
- normalized signal at concentration 0.123457 [1, 4]: 1.00
- normalized signal at concentration 0.37037 [1, 4]: 0.78
- normalized signal at concentration 1.11111 [1, 4]: 1.22
- normalized signal at concentration 3.33333 [1, 4]: 1.08
- IC50 [1, 5]: > 10 µM
- normalized signal at concentration 10 [1, 6]: 0.60
- normalized signal at concentration 0.000508053 [1, 7]: 0.82
- normalized signal at concentration 0.00152416 [1, 7]: 0.84
- normalized signal at concentration 0.00457247 [1, 7]: 0.88
- normalized signal at concentration 0.0137174 [1, 7]: 0.90
- normalized signal at concentration 0.0411523 [1, 7]: 1.01
- normalized signal at concentration 0.123457 [1, 7]: 0.92
- normalized signal at concentration 0.37037 [1, 7]: 0.85
- normalized signal at concentration 1.11111 [1, 7]: 0.92
- normalized signal at concentration 3.33333 [1, 7]: 0.98
- PbLuc_max_inhibition (%) [1, 8]: 57%
- IC50 ([2]; sheet 2nd round): > 10 µM
- Tox_max_inhibition (%) [2, 8]: 12%
